Assays:
[1] = Pharmacokinetic test in SD rats
Protocol: Experimental objective: The objective of this experimental example is to test the pharmacokinetic profile of compounds in SD rats.
Route of administration: The animals were weighed before administration, and the dose was calculated based on their body weight. Administration was performed via intravenous injection and oral gavage.
Blood collection time points: After administration, for IV group: 0.083 h, 0.25 h, 0.5 h, 1 h, 2 h, 4 h, 8 h, and 24 h; for PO group: 0.25 h, 0.5 h, 1 h, 2 h, 4 h, 6 h, 8 h, and 24 h. Blood was collected via the jugular vein, with approximately 0.2 mL collected for each sample. The blood samples were anticoagulated with K2-EDTA and placed on ice after collection.
Plasma sample processing: After collection, the blood samples were placed on ice and centrifuged within 1 hour to separate plasma (centrifugation conditions: 6800g, 6 minutes, 2-8°C). The plasma samples were stored in a -80°C refrigerator before analysis.
Result analysis: Pharmacokinetic parameters were calculated using Phoenix WinNonlin 7.0 based on the plasma concentration data at different time points.

AAK1 = molecular target: T1, AAK1 (Homo sapiens, UniProt Q2M2I8); test: Effect on AP2M1 phosphorylation in 293T cells co-transfected with AAK1 and AP2M1 (Western blot, anti-p-AP2M1); assay type: cell-based; conditions: p-AP2M1 level, incubated 3 h
T1 construct: HA; expressed in transfected cells; host or cells: 293T cells
Source text: Experimental objective: The objective of this test example is to determine the effect of compounds on AP2M1 phosphorylation in cells.
Background principle: Adaptor-associated kinase 1 (AAK1), also known as AP2-associated kinase 1, is a 104 kDa serine/threonine kinase. AAK1 interacts with the adaptor protein 2 (AP2) complex and phosphorylates the threonine residue in the micro-subunit of AP2 (AP2M1), thereby increasing its binding affinity for certain tyrosine-based or dileucine-based sorting signals of some membrane receptors. The inhibitory effect of compounds on AAK1 was evaluated by detecting the phosphorylation level of AP2M1 in cells, so as to screen candidate compounds.
On the second day, each T25 flask was co-transfected with 16 µg of plasmids (1 µg of AAK1/HA/pIRES and 15 µg of Flag/AP2MI/pcDNA) using a Lip2000 transfection reagent. On the third day, the cells were digested and resuspended, centrifuged at 1000 rpm for 5 minutes, and then seeded into 24-well plates at 450 µl per well (2 × 10^5 cells/well). Gradient dilutions of the compounds to be tested were prepared, 50 µl was added to each well, mixed thoroughly, and incubated at 37°C for 3 h. DMSO was set as a control, and cells without plasmid transfection were set as a blank control. After incubation, the cells were collected and washed twice with PBS. The cells were lysed on ice for 30 minutes using a cell lysis buffer containing the protease inhibitor PMSF. The concentration of protein samples was determined using a BCA kit. Protein electrophoresis: The voltage for the stacking gel was set at 60 V, and that for the separating gel was set at 120 V. After electrophoresis, electrotransfer was initiated. Electrotransfer conditions were set at 250 mA for 2 h. Blocking with 5% BSA was performed for 1 h. A specific primary antibody, anti-p-AP2M1, was added, and incubation was carried out overnight at 4°C on a shaker. Washing with TBST was conducted 4 times, with 2.5 minutes each time. A secondary antibody was incubated on a shaker at room temperature for 1 h. Washing with TBST was conducted 4 times, with 2.5 minutes each time. ECL was used for development to detect the expression level of p-AP2M1. Western blot bands were processed and converted using Image J and GraphPad software to calculate IC50.
IC50 (half maximal inhibitory concentration) refers to the half-inhibitory concentration of the measured antagonist. It can indicate the concentration of a certain drug or substance (inhibitor) that achieves half of the inhibition effect on certain biological processes (or certain substances involved in these processes, such as enzymes, cellular receptors, or microorganisms).

[2] = male, SD, rat, plasma, po, 3 mg/kg

T1 sequence (Q2M2I8 whole entry): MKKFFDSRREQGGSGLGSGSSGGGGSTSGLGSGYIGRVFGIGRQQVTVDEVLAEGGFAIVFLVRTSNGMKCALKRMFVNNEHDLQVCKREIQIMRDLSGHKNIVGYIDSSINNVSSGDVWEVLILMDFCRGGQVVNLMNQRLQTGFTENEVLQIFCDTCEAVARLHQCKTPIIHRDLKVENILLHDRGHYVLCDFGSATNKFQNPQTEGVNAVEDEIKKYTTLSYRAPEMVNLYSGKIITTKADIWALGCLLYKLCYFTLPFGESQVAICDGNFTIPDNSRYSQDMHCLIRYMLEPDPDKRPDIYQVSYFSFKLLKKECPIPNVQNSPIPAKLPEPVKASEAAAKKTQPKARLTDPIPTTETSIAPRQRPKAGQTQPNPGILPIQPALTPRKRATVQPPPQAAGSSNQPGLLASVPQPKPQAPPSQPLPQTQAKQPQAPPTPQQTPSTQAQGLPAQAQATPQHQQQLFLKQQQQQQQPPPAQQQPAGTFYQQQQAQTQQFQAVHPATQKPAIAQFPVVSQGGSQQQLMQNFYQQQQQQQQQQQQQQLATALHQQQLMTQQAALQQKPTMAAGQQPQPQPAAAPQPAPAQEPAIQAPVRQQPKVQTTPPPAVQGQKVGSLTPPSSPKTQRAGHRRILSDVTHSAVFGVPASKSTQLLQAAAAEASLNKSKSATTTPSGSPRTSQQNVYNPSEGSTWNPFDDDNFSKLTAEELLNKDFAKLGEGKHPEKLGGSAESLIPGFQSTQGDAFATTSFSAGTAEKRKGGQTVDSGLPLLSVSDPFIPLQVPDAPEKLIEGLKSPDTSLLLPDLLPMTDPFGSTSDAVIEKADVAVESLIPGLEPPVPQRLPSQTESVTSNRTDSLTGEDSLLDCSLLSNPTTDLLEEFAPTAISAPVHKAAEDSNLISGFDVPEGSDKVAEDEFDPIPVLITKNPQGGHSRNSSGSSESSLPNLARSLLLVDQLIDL

in vivo exposure compared with the positive control ([1]; SD rats, versus BMS-986176): approximately four times | peak concentration (Cmax) compared with the positive control ([1]; SD rats, versus BMS-986176): approximately four times | AUC(0-inf) [1, 2]: 4130 ng·h/mL | AUC(0-t) [1, 2]: 4010 ng·h/mL | Cmax [1, 2]: 325 ng/mL | MRT inf [1, 2]: 10.9 h | MRT last [1, 2]: 8.09 h | Tmax [1, 2]: 3.1 h | half-life [1, 2]: 6.98 h | IC50 (AAK1): 10 to 100 nM
Compound: CC(C)C[C@](C)(N)COc1ccc(-c2c[nH]c3ncc(F)cc23)nc1C(F)F [Compound 26, (S)-1-{[2-(difluoromethyl)-6-(5-fluoro-1H-pyrrolo[2,3-b]pyridin-3-yl)pyridin-3-yl]oxy}-2,4-dimethylpentan-2-amine]

From patent publication EP4692089A1, “NITROGEN-CONTAINING HETEROCYCLIC COMPOUND AS AAK1 INHIBITOR” (Alicorn Pharmaceutical Co., Ltd., priority 2023, dated 2024)
